The results in this text go back to patent US20090011052A1, “Anti-HIV medicinal herbs composition, preparation thereof and use of the same” (priority 2004, published 2009).

In assay [1] the test system is SIVmac251. Briefly: Plasma viral load in SIVmac251-infected Rhesus monkey. The conditions noted are these: within the dosing range.
Text: Experiment animals: 5 females and 5 males Rhesus monkey as experimental animal with 4.5-5.5 Kg/each for a total of 10 were used, purchased from Primate Breeding Center, Research Institute of Experimental Animals, Chinese Academy of Medical Sciences. They were fed with commercial popped feeds. No abnormal physical examination was found before the experiment. Potential infections with SIV, SRV Type D and STLV-I were excluded by the serum IFA antibody test.
Each animal was intravenously infected with 1 ml virus solution equivalent to 3MID100 viral load.
Within each group, there were 3-4 animals with equal females and males. […] No drug treatment was offered for SIVmac251 infection control group.
Observation pre- and post-infection: Besides other pre-infection physical examinations, body weight and blood-drawing were made for each monkey (conducting all parameter tests). […] At the pre-determined timepoints, blood was drawn for the monkey to measure the plasma viral titer, blood CD4^+ count and antibody titre. […]
Plasma virus isolation: After the animals were infected with SIVmac251, to collect the blood samples were collected respectively at Days 7, 11, 14, 21, 28, 42, 60 and the plasma were separated by heparin anti-clotting. […] The viral titre was chosen for the sample with the lowest inoculation quantity but showing the typical patterns of cellular confluence. […]
The test system of assay [2] is SIVmac251. Put plainly: Blood CD4+ lymphocyte count in SIVmac251-infected Rhesus monkey. The assay is classed as in vivo. The source says:
They were fed with commercial popped feeds.
Measurement of blood CD4^+ count: Blood samples were drawn from the animals before infection and 14, 28, 42 and 60 days after infection with SIVmac251 Ficoll lymphocyte separation fluid was adopted to isolate the peripheral lymphocytes. After tagging the anti-CD4 monoclonal antibody with direct fluorescence, the cells were counted on FACS machine to obtain the CD4^+ percentage. In combination with WBC count with DC of routine blood examination, the total count of blood CD4^+ lymphocytes was calculated. • 1.

Turning to `Cc1cn([C@H]2C[C@H](N=[N+]=[N-])[C@@H](CO)O2)c(=O)[nH]c1=O` [AZT], the “inhibition rate upon SIV” value in assay [1] is given as “over 90%”. Further, the “CD4 cells spared of the viral attacks (protected)” value in assay [2] (2 and 4 weeks post-infection) came out at 35%. The “CD4+ lymphocytes” value came to 714.51 in assay [2] (2 week infection); 540.57 in assay [2] (4 week); 543.31 in assay [2] (6 week); 530.95 in assay [2] (8 w); 959.86 in assay [2] (Pre-experiment). Further, the “CD4+ lymphocytes, Difference with control” value is on record as 187.21 in assay [2] (2 week infection), 137.96 in assay [2] (4 week) and 83.24 in assay [2] (6 week). For the same compound, the “CD4+ lymphocytes, Difference with control (%)” value was “(35.5%)” in assay [2] (2 week infection), “(34.27%)” in assay [2] (4 week), “(18.09%)” in assay [2] (6 week) and “(43.0%)” in assay [2] (8 w).
